Results on two compounds are retold here after patent US20220274997A1, “PIM KINASE INHIBITOR COMPOSITIONS AND USES THEREOF” (Snap Bio, Inc., priority 2019, published 2022).

In one experiment the target is T1, PIM1 (Homo sapiens, UniProt P11309).
T1 construct: purchased ProQinase, Freiburg, Germany 0186-0000-1
Put plainly: Biochemical radiolabeled ATP kinase assay (Reaction Biology), PIM1. To be noted: 10 μM ATP. The source says: The second assay used was Perkin Elmer's LANCE® Ultra kinase assay which uses a ULight™-labeled peptide substrate and an appropriate Europium-labeled anti-phospho antibody. When the substrate becomes phosphorylated by a kinase of interest, the phosphorylated site on the substrate is recognized by the Europium-labeled anti-phospho antibody. […] The intensity of light emission is proportional to the level of ULight peptide phosphorylation. A kinase inhibitor reduces the FRET signal, thus providing an accurate and sensitive measure of inhibition potency. […]
(§1) The standard protocol used for PIM3 was performed by Reaction Biology Corporation (Malvern, Pa.) using a capture assay performed in 20 mM HEPES at pH 7.5 containing 10 mM MgCl2, 10 mM MnCl2, 1 mM EGTA, 0.02% Brij35, 0.02 mg/mL BSA, 0.1 mM Na3VO4, 2 mM DTT, 0.02% Brij35, 10 μM ATP, and 20 μM peptide substrate […]. […] The bound ^33P-peptide substrate was quantified by scintillation counting and the disintegrations per minute (dpm) obtained, being directly proportional to the amount of ^33P-peptide produced by PIM3, were used to determine the IC50 for each compound. […]
(§2) The inhibitory activity of each compound against PIM kinases was measured with the radioisotope filter binding assay, a type of substrate phosphorylation assays, available at Reaction Biology Corporation (Mavern, Pa.).

In another experiment the target is T2, PIM2 (Homo sapiens, UniProt Q9P1W9).
T2 construct: purchased ProQinase, Freiburg, Germany 0223-0000-1
Put plainly: Biochemical radiolabeled ATP kinase assay (Reaction Biology), PIM2. To be noted: 10 μM ATP.
From the text: Two different assays for measuring kinase inhibitor activity were employed for messing the effectiveness of compounds of the present disclosure for inhibiting PIM kinases. […] The second assay used was Perkin Elmer's LANCE® Ultra kinase assay which uses a ULight™-labeled peptide substrate and an appropriate Europium-labeled anti-phospho antibody. When the substrate becomes phosphorylated by a kinase of interest, the phosphorylated site on the substrate is recognized by the Europium-labeled anti-phospho antibody. […]
as §1
The inhibitory activity of each compound against PIM kinases was measured with the radioisotope filter binding assay, a type of substrate phosphorylation assays, available at Reaction Biology Corporation (Mavern, Pa.). […]

In a further experiment the target is T3, PIM3 (Homo sapiens, UniProt Q86V86).
T3 construct: purchased SignalChem, Richmond, Canada P37-10BG
Put plainly: Biochemical radiolabeled ATP kinase assay (Reaction Biology), PIM3. To be noted: for IC50: 10 μM ATP.
From the text: The second assay used was Perkin Elmer's LANCE® Ultra kinase assay which uses a ULight™-labeled peptide substrate and an appropriate Europium-labeled anti-phospho antibody. When the substrate becomes phosphorylated by a kinase of interest, the phosphorylated site on the substrate is recognized by the Europium-labeled anti-phospho antibody. […] The intensity of light emission is proportional to the level of ULight peptide phosphorylation. A kinase inhibitor reduces the FRET signal, thus providing an accurate and sensitive measure of inhibition potency.
The basic biochemical assay employs radiolabeled ATP to measure the kinase-catalyzed transfer of radioactive phosphorus to a tyrosine-containing peptide substrate, according to the general equation: […]
Reaction: Substrate+[γ-^33P]−ATP→^33P-Substrate+ADP
The standard protocol used for PIM3 was performed by Reaction Biology Corporation (Malvern, Pa.) using a capture assay performed in 20 mM HEPES at pH 7.5 containing 10 mM MgCl2, 10 mM MnCl2, 1 mM EGTA, 0.02% Brij35, 0.02 mg/mL BSA, 0.1 mM Na3VO4, 2 mM DTT, 0.02% Brij35, 10 μM ATP, and 20 μM peptide substrate […]. […] Reagents were combined and incubation at 30° C. for 30 min, the reaction was initiated by adding [γ-^33P]-ATP (10 ρCi/mL [γ-^33P]-ATP) and incubated for 2 h at 30° C. The reaction was then terminated by the addition of one-third volume of stop reagent (0.25 mM EDTA and 33 mM ATP in dH20). A […] aliquot was removed, spotted onto a P-81 filternat ion exchange paper and washed sequentially with 10% (w/v) chloroacetic acid and dH20 to remove ATP. The bound ^33P-peptide substrate was quantified by scintillation counting and the disintegrations per minute (dpm) obtained, being directly proportional to the amount of ^33P-peptide produced by PIM3, were used to determine the IC50 for each compound. […]
as §2

A further experiment deals with HepG2. Description: CellTiter-Glo cancer cell growth inhibition, HepG2. Type of experiment: cell-based, human. The note with it: Homo sapiens, HepG2, 72 h. The text has this:
(§3) The CellTiter-Glo® Luminescent Cell Viability Assay is a sensitive homogeneous method to determine the number of viable cells in culture, Detection is based on using the luciferase reaction to measure the amount of ATP from viable cells. The amount of ATP in cells correlates with cell viability. Within minutes after a loss of membrane integrity, cells lose the ability to synthesize ATP, and endogenous ATPases destroy any remaining ATP; thus the levels of ATP fall precipitously. The CellTiter-Glo® Reagent does three things upon addition to cells. It lyses cell membranes to release ATP; it inhibits endogenous ATPases, and it provides luciferin, luciferase and other reagents necessary to measure ATP using a bioluminescent reaction. The unique properties of a proprietary stable luciferase.
(§4) All assays were performed by Reaction Biology Corporation (Malvern, Pa.) or ChemDiv, Inc. (San Diego, Calif.). All cell lines were purchased from American Type Culture Collection (ATCC, Manassas, Va.), except Huh 7 (RIKEN, Toyo, Japan) and HepaRG (Life Technologies, Carlsbad, Calif.).
(§5) Stock solutions ([…]) were diluted with cell culture media to produce 500× serial dilutions and […] of final compound dilutions were added to cells in assay plates to screen a series of 10 doses starting at […]. Final DMSO concentration was 0.2%. Assay plates are centrifuged at 100 rpm, 1 minute and kept at 37° C., 5% CO2, humidified atmosphere. […] Luminescence intensity was measured for each well using the Tecan M 1000 microplate reader after 5 min of incubation with CellTiter-Glo Reagent. The number of viable cells in culture was determined based on quantitation of the ATP present in each culture well. […] The EC50 curves were plotted and […] values were calculated using the GraphPad Prism 4 program based on a sigmoidal dose-response equation.
For orientation: Cellular ATP, detected with luciferase, serves as a proxy for viable cell number.

For the next experiment, the system named is HepaRG. Description: CellTiter-Glo cancer cell growth inhibition, HepaRG. Type of experiment: cell-based. The note with it: Homo sapiens, 72 h.
From the text: as §3, §4, §5

A further experiment concerns A673. Description: CellTiter-Glo cancer cell growth inhibition, A673. Type of experiment: cell-based. The note with it: Homo sapiens, A673, 72 h.
From the text: as §3, §4, §5

Each structure is given as a SMILES string. “And” between values parts separate entries of the source, which are not always exact repeats. Identical values can stand only once.

T2 sequence (Q9P1W9 whole entry): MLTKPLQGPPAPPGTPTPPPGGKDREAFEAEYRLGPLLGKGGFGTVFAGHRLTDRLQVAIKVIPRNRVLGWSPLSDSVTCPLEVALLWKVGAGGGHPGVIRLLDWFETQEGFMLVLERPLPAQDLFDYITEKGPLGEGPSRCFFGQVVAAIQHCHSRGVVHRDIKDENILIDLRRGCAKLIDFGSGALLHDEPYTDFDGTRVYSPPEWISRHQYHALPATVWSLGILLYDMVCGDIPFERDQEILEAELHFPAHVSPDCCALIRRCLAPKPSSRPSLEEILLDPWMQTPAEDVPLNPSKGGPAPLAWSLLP
T1 sequence (P11309 whole entry): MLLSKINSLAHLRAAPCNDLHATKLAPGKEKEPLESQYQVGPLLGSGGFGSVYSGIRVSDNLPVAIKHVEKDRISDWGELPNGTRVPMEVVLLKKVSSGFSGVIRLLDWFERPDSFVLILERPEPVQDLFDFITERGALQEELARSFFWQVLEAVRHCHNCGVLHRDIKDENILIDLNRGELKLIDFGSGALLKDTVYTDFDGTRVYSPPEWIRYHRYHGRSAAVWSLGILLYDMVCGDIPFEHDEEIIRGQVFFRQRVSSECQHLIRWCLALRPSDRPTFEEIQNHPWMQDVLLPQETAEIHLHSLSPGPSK

For the compound `O=C1NC(=O)c2c1c1c3ccccc3[nH]c1c1c2c2cc(F)c(O)cc2n1CCN1CCOCC1` [Compound 19, 3-fluoro-2-hydroxy-13-(2-morpholin-4-ylethyl)-12,13-dihydro-5H-indolo[2,3-a]pyrrolo[3,4-c]carbazole-5,7(6H)-dione], the IC50 at PIM1 is 0.98 nM; against PIM2, 6.7 nM; against PIM3 it was 0.2 nM. Further, the EC50 in the experiment on HepG2 is 34 nM; in the experiment with HepaRG, 48 nM; with A673 it was 10 nM.
Consider `O=C1NC(=O)c2c1c1c3cc(F)c(O)cc3[nH]c1c1c2c2ccccc2n1CCN1CCOCC1` [Compound 18, 3-fluoro-2-hydroxy-12-(2-morpholin-4-ylethyl)-12,13-dihydro-5H-indolo[2,3-a]pyrrolo[3,4-c]carbazole-5,7(6H)-dione], for which the half-inhibitory concentration (IC50) at PIM1 was 1.8 nM; against PIM2, 7 nM and 7.4 nM; at PIM3, 0.25 nM. Further, the “Selectivity among PIM1-3 (IC50 plots, FIGS. 1A-1C)” value at PIM3 is listed as “PIM3 selectivity”. For the same compound, the response with HepG2 was half-maximal at 76 nM (EC50).

Broadly, the IC50 is the concentration that inhibits the measured activity by half. The EC50 is the midpoint of the concentration-response curve.
